# Assays:
# [1] = test system: LAMA-84 cells; experiment: Apoptosis of CML cells, annexin V / TOPRO3 flow cytometry; format: cell-based, human
# Procedure: (§1) Briefly, cell lines K562 (human immortalized myelogenous leukemia line) and LAMA-84 (a human leucocytic cell line) were seeded in medium containing 10% FBS and penicillin/streptomycin. After 24 hours, the cells were treated with Compound 1 for 48 hours. At the end of the treatment, the cells were washed with 1×PBS and stained with annexin V and TOPRO3 iodide. The percentages of apoptotic cells were determined by flow cytometry.
# (§2) Briefly, the cell lines K562 and LAMA-84, were seeded in medium containing 10% FBS and penicillin/streptomycin. After 24 hours, the cells were treated with either: 1) Compound 1 alone; or 2) in combination with panobinostat and nilotinib for 48 hours. At the end of treatment, cells were washed with 1×PBS and stained with annexin V and TOPRO3 iodide. The percentages of apoptotic cells were determined by flow cytometry.
# [2] = test system: K562 cells; experiment: as above; format: cell-based, human
# Procedure: as §1, §2
# [3] = test system: CD34+ MPN cells; experiment: Apoptosis of primary MPN cells isolated from patients; format: cell-based
# Procedure: Briefly, the CD34+ cells isolated from bone marrow of MPN patients, were seeded in medium containing 10% FBS and penicillin/streptomycin. After 24 hours, the cells were treated with Compound 1 for 48 hours or Compound 1 in combination with TG101209. At the end of treatment, cells were washed with 1×PBS and stained with annexin V and TOPRO3 iodide. The percentages of apoptotic cells were determined by flow cytometry. Combination index (CI) was determined using the method of Chou-Talalay (Adv. Enzyme Regul. 22, 27-55).
# [4] = test system: HEL 92.1.7 cells; experiment: Apoptosis of MPN cells, annexin V / TOPRO3 flow cytometry; format: cell-based
# Procedure: as §2, with “HEL 92.1.7 (FIGS. 1A” for “K562”, “1C) and UKE1 (FIGS. 1B and 1D)” for “LAMA-84,”, “1;” for “1 alone;”, “2) Compound 1” for “2)”, “TG101209” for “panobinostat and nilotinib”
# [5] = test system: UKE1 cells; experiment: as above; format: cell-based
# Procedure: as §2, with “HEL 92.1.7 (FIGS. 1A” for “K562”, “1C) and UKE1 (FIGS. 1B and 1D)” for “LAMA-84,”, “1;” for “1 alone;”, “2) Compound 1” for “2)”, “TG101209” for “panobinostat and nilotinib”
# [6] = test system: β-catenin; experiment: Western blot, proteasomal degradation of β-catenin in AML cells (FIG. 6C); format: cell-based
# Procedure: As one can see, there is less of β-catenin in the AML cells treated with 100 nM of Compound 1 for 8 hours as compared to non-treated AML cells. However, when 10 nM of Carfilzomib (CZ) (a proteasome inhibitor) were administered to the same AML cells, the amount of β-catenin increased.
# [7] = test system: β-catenin, c-MYC, Cyclin D1 and p21; experiment: Levels of β-catenin, c-MYC, Cyclin D1 and p21 in AML cells (FIG. 7C); format: cell-based; settings: 100 nM
# Procedure: FIG. 7C contains the bar chart of the effect of administering 100 nM of Compound 1 to AML cells on levels of β-catenin, c-MYC, Cyclin D1 and p21 (control).
# [8] = test system: TCF reporter plasmid (TOP-FLASH); experiment: TOP-FLASH and FOP-FLASH luciferase activity in AML cells; format: cell-based; settings: 20 nM, 50 nM, and 100 nM
# From the text: FIG. 7A depicts a bar chart of TOP-FLASH and FOP-FLASH luciferase activity versus treatment of AML cells with different amounts of Compound 1.
# TOP-FLASH is a Transfection grade T-cell factor (TCF) reporter plasmid containing two sets (with the second set in the reverse orientation) of three copies of the TCF binding site (wild type) upstream of the Thymidine Kinase (TK) minimal promoter and Luciferase open reading frame.
# FOP-FLASH is a reporter plasmid containing mutated TCF binding sites is a negative control.
# There was no reduction in FOP-FLASH (negative control).
# [9] = test system: CD34+ Primary FLT3-ITD AML cells; experiment: % of non-viable cells, in vitro apoptosis; format: cell-based; settings: various amounts
# [10] = test system: OCI-AML3 xenograft cells; experiment: Survival of NSG mice with established AML by OCI-AML3 xenograft; format: in vivo; settings: three weeks, twice per week tail vein infusion
# [11] = test system: β-catenin at target gene promoters; experiment: chIP (Chromatin immunoprecipitation) analysis in AML cells; format: cell-based; settings: 200 nM, 8 hours
# From the text: FIG. 7B contains the bar chart of the results of chIP (Chromatin immunoprecipitation) analysis of the effect of treating AML cells with Compound 1.
# [12] = test system: primary FLT3-ITD AML xenograft; experiment: Survival of NSG mice with primary FLT3-ITD AML xenograft; format: in vivo; settings: 10 mg/kg, three weeks, twice per week intravenous infusion
# From the text: Very similar results were obtained in NSG mice with primary FLT3-ITD AML xenograft.
# [13] = test system: β-catenin; experiment: Western blot of AML cells (FIG. 5C); format: cell-based; settings: 100 nM
# [14] = target: T1, binding of β-catenin to TBL1 (Homo sapiens, UniProt O60907); experiment: Staining of AML cells with anti-β-catenin antibody, anti-TBL1 antibody and DAPI (FIG. 6B); format: cell-based; settings: 100 nM, 16 hours
# T1 construct: endogenous in cells; host or cells: AML cells
# T1 sequence (O60907 1-577): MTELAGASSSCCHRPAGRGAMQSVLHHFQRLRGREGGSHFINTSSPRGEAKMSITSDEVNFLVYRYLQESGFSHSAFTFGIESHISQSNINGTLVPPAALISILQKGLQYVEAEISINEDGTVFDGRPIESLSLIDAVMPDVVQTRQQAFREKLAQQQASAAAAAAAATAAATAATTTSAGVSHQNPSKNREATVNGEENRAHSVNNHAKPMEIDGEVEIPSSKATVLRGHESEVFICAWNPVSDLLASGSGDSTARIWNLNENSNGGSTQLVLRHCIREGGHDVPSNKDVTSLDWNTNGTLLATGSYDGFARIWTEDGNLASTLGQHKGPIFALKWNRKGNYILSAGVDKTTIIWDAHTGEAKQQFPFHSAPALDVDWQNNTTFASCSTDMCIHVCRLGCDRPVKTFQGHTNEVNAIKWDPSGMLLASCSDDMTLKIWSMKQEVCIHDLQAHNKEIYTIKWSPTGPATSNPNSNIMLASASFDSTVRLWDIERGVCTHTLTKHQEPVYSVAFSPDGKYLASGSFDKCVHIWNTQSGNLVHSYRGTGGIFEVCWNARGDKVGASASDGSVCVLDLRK
# Procedure: FIG. 6B is a series of photographs of stained AML cells with and without prior administration of Compound 1. The top panel depicts control cells (without prior administration of Compound 1) and the bottom panel depicts AML cells following administration of 100 nM of Compound 1 for 16 hours. The cells were stained with the anti-β-catenin antibody, anti-TBL1 antibody, and DAPI nucleic acid stain. The photographs of TBL1 and anti-beta-catenin stains were also merged. […] Compare especially the top right photograph and the bottom right photograph.
# [15] = test system: HEL 92.1.7 cells; experiment: Mouse model of human MPN, survival; format: in vivo, NOD-SCID mice; settings: 15 or 20 mg/Kg b.i.w for three weeks via the tail vein; p<001
# Procedure: Briefly, NOD-SCID mice were sub-lethally irradiated and HEL 92.1.7 cells were infused into the tail vein and MPN established. Mice were treated with 15 or 20 mg/Kg of Compound 1 administered b.i.w for three weeks via the tail vein. Animals were followed for survival after dosing stopped.
# [16] = test system: CD34+ Primary FLT3-WT AML cells; experiment: % of non-viable cells, in vitro apoptosis; format: cell-based; settings: various amounts
# [17] = test system: β-catenin; experiment: β-catenin expression and nuclear localization, staining with anti-β-catenin antibody and DAPI; format: cell-based; settings: CD34+ Primary FLT3-ITD AML cells, 100 nM, 16 hours
# From the text: Briefly, CD34+ Primary AML cells, CD34+ Primary FLT3-ITD AML cells and CD34+ Normal cells were stained with anti-β-catenin antibody and DAPI nucleic acid stain. The photographs of these stains were also merged. The photographs of the stained cells are contained in FIG. 5A. As these photographs show, there is a lot of β-catenin expressed in both types of AML cells, and β-catenin is concentrated in nuclei of these cells.
# As one can see, compared to control cells (i.e., not treated with Compound 1), this treatment leads to depletion of β-catenin expression and nuclear localization in AML cells.
# [18] = test system: CD34+ CD38-Lin-Primary AML cells; experiment: % of non-viable cells, in vitro apoptosis; format: cell-based; settings: various amounts
# [19] = test system: β-catenin; experiment: Western blot of primary AML cells (FIG. 6A); format: cell-based; settings: 100 nM, 8 hours
# [20] = in combination with Compound 1, 48 hours
compound,measurement,setting,value
"Cc1cn(-c2cc(NC(=O)c3ccc(C)c(Nc4nccc(-c5cccnc5)n4)c3)cc(C(F)(F)F)c2)cn1 [nilotinib, reference compound]",effect on apoptosis induced by Compound 1,"[1]; LAMA-84, in combination with Compound 1, 48 hours",enhanced
same,effect on apoptosis induced by Compound 1,"[2]; K562, in combination with Compound 1, 48 hours",enhanced
"Cc1cnc(Nc2ccc(N3CCN(C)CC3)cc2)nc1Nc1cccc(S(=O)(=O)NC(C)(C)C)c1 [TG101209, N-tert-butyl-3-[[5-methyl-2-[4-(4-methylpiperazin-1-yl)anilino]pyrimidin-4-yl]amino]benzenesulfonamide, reference compound]","effect on apoptosis induced by Compound 1, CD34+ MPN cells",[3]; in combination with Compound 1,enhanced
same,"effect on apoptosis induced by Compound 1, HEL 92.1.7 cells",[4]; [20],enhanced
same,"effect on apoptosis induced by Compound 1, UKE1 cells",[5]; [20],enhanced
"CC(C)C[C@H](NC(=O)[C@H](CCc1ccccc1)NC(=O)CN1CCOCC1)C(=O)N[C@@H](Cc1ccccc1)C(=O)N[C@@H](CC(C)C)C(=O)[C@@]1(C)CO1 [Carfilzomib, reference compound]",amount of β-catenin,[6]; 10 nM Carfilzomib administered to the same AML cells treated with Compound 1,increased
C[C@@H]1C[C@H](C)CN(S(=O)(=O)c2ccc3c(c2)C(=NO)c2cc(S(=O)(=O)N4C[C@H](C)C[C@H](C)C4)ccc2C3=NO)C1 [Compound 1],expression of Cyclin D1,[7],lower expression
same,expression of c-MYC,[7],lower expression
same,expression of p21,[7],much higher expression
same,expression of β-catenin,[7],lower expression
same,apoptosis of CD34+ MPN cells,"[3]; 100 nM or above, 48 hours",induced apoptosis
same,fate of β-catenin,[6]; AML cells,proteasomal degradation
same,"β-catenin compared to non-treated AML cells, Western blot","[6]; AML cells, 100 nM, 8 hours",less
same,FOP-FLASH luciferase activity (negative control),[8],no reduction
same,TOP-FLASH luciferase activity (expression of β-catenin as measured by this luciferase assay),[8],much lower expression
same,in vitro apoptosis (% of non-viable cells),[9],significantly induced in vitro apoptosis
same,survival compared to the control mice,[10]; 5 mg/kg,improved survival
same,survival compared to the control mice,[10]; 10 mg/kg,improved survival
same,"amount of promoter DNA of CCND1, chIP",[11],reduced amount
same,"amount of promoter DNA of c-MYC, chIP",[11],reduced amount
same,"amount of promoter DNA of survivin, chIP",[11],reduced amount
same,% survival compared to the control mice,[12],dramatic increase
same,effect at S or G2/M phases of the cell cycle,"[1]; LAMA-84, 48 hours",did not have significant effect
same,number of apoptotic cells at G0/G1 phase of the cell cycle,"[1]; LAMA-84, 48 hours",increased
same,number of apoptotic cells,"[1]; LAMA-84, Compound 1 alone, 48 hours",increased
same,effect at S or G2/M phases of the cell cycle,"[2]; K562, 48 hours",did not have significant effect
same,number of apoptotic cells at G0/G1 phase of the cell cycle,"[2]; K562, 48 hours",increased
same,number of apoptotic cells,"[2]; K562, Compound 1 alone, 48 hours",increased
same,"Survivin level, Western blot",[13],about the same levels
same,"TBL1 level, Western blot",[13],about the same levels
same,"c-MYC level, Western blot",[13],about the same levels
same,"β-actin level, Western blot",[13],about the same levels
same,"β-catenin expression, Western blot",[13],less
same,"binding of β-catenin to TBL1, staining",[14],severely disrupted
same,"levels of β-catenin, staining",[14],depleted
same,survival compared to the control,[15],significantly improved survival
same,in vitro apoptosis (% of non-viable cells),[16],significantly induced in vitro apoptosis
same,apoptosis of HEL 92.1.7 cells,"[4]; Compound 1 alone, 48 hours",induced apoptosis
same,apoptosis of UKE1 cells,"[5]; Compound 1 alone, 48 hours",induced apoptosis
same,β-catenin expression and nuclear localization,[17],depletion
same,in vitro apoptosis (% of non-viable cells),[18],significantly induced in vitro apoptosis
same,"β-catenin, Western blot",[19],less

# Reference: patent US9238030B2, “Methods for treatment of diseases and disorders related to transducin β-like protein 1 (TBL1) activity, including myeloproliferative neoplasia and chronic myeloid leukemia” (Beta Cat Pharmaceuticals, LLC, priority 2011, dated 2016)
